Earlier results in publication PMC6318274, “Lattice engineering enables definition of molecular features allowing for potent small-molecule inhibition of HIV-1 entry” (Nature Communications, 2019).
Read-outs that look alike come from different tables or passages of the source.

Test system: HIV-1 Env-pseudoviruses (208-strain panel)
Conditions: cited from earlier work; for IC50: read-out: IC50; for % Neutralized / Total Neutralized: 208 viruses

COc1cnc(-n2cnc(C)n2)c2[nH]cc(C(=O)C(=O)N3CCN(C(=O)c4ccccc4)CC3)c12 [BMS-626529]
IC50 (CNE20, clade BC): 0.339 µM | IC50 (CNE21, clade BC): 0.002 µM | IC50 (CNE30, clade C): 0.001 µM | IC50 (CNE31, clade C): 0.023 µM | IC50 (CNE40, clade BC): 0.038 µM | IC50 (CNE53, clade C): 0.0005 µM | IC50 (CNE55, clade AE): 4.77 µM | IC50 (CNE56, clade AE): > 20 µM | IC50 (CNE57, clade B): 0.002 µM | IC50 (CNE58, clade C): 0.004 µM | IC50 (CNE59, clade AE): > 20 µM | IC50 (Ce1176.A3, clade C): 0.01 µM | IC50 (DJ263.8, clade AG): 0.011 µM | IC50 (DU123.06, clade C): 0.005 µM | IC50 (DU151.02, clade C): 0.006 µM | IC50 (DU156.12, clade C): 0.003 µM | IC50 (DU172.17, clade C): 0.008 µM | IC50 (DU422.01, clade C): 0.008 µM | IC50 (HO86.8, clade B): 0.02 µM | IC50 (HT593.1, clade B): 0.0009 µM | IC50 (HXB2.DG, clade B): 0.001 µM | % Neutralized (IC50 <0.01ug/ml): 46% | Total Neutralized (IC50 <0.01ug/ml): 95 | % Neutralized (IC50 <0.1ug/ml): 71% | Total Neutralized (IC50 <0.1ug/ml): 147 | % Neutralized (IC50 <1.0ug/ml): 80% | Total Neutralized (IC50 <1.0ug/ml): 167 | % Neutralized (IC50 <10ug/ml): 89% | Total Neutralized (IC50 <10ug/ml): 185 | % Neutralized (IC50 <50ug/ml): 91% | Total Neutralized (IC50 <50ug/ml): 189 | IC50 (JRCSF.JB, clade B): 0.0003 µM | IC50 (JRFL.JB, clade B): 0.0004 µM | IC50 (KER2008.12, clade A): 1.87 µM | IC50 (KER2018.11, clade A): 0.008 µM | IC50 (KNH1209.18, clade A): 0.029 µM | IC50 (M02138, clade AE): 2.81 µM | IC50 (MB201.A1, clade A): 0.628 µM | IC50 (MB539.2B7, clade A): 0.191 µM | IC50 (MI369.A5, clade A): 0.013 µM | IC50 (MN.3, clade B): 0.01 µM | IC50 (MS208.A1, clade A): 0.011 µM | IC50 (MW965.26, clade C): 0.433 µM | IC50 (NKU3006.ec1, clade D): 0.005 µM | IC50 (P0402.c2.11, clade G): 0.032 µM | IC50 (P1981.C5.3, clade G): 0.209 µM | IC50 (PVO.04, clade B): 0.003 µM | IC50 (Q23.17, clade A): 0.012 µM | IC50 (Q168.a2, clade AD): 0.115 µM | IC50 (Q259.17, clade A): 1.23 µM | IC50 (Q461.e2, clade AD): 0.012 µM | IC50 (Q769.d22, clade A): 0.123 µM | IC50 (Q769.h5, clade A): 0.427 µM | IC50 (Q842.d12, clade A): 0.017 µM | IC50 (QH209.14M.A2, clade A): 0.61 µM | IC50 (QH0515.01, clade B): 0.012 µM | IC50 (QH0692.42, clade B): 0.009 µM | IC50 (R1166.c1, clade AE): > 20 µM | IC50 (R2184.c4, clade AE): > 20 µM | IC50 (R3265.c6, clade AE): 13 µM | IC50 (REJO.67, clade B): 1.04 µM | IC50 (RHPA.7, clade B): 0.004 µM | IC50 (RW020.2, clade A): 0.071 µM | IC50 (SC422.8, clade B): 0.002 µM | IC50 (SF162.LS, clade B): 0.001 µM | IC50 (SO18.18, clade C): 0.003 µM | IC50 (SS1196.01, clade B): 7.05 µM | IC50 (T33-7, clade AG): 2.81 µM | IC50 (T250-4, clade AG): 0.015 µM | IC50 (T251-18, clade AG): 0.019 µM | IC50 (T253-11, clade AG): 0.001 µM | IC50 (T255-34, clade AG): 0.082 µM | IC50 (T257-31, clade AG): 0.057 µM | IC50 (T266-60, clade AG): 1.37 µM | IC50 (T278-50, clade AG): 0.0002 µM | IC50 (T280-5, clade AG): 0.01 µM | IC50 (TH023.6, clade AE): > 20 µM | IC50 (TH966.8, clade AE): > 20 µM | IC50 (TH976.17, clade AE): > 20 µM | IC50 (THRO.18, clade B): 0.003 µM | IC50 (TRJO.58, clade B): 0.001 µM | IC50 (TRO.11, clade B): 1.08 µM | IC50 (TV1.29, clade C): 0.067 µM | IC50 (TZA125.17, clade C): 0.014 µM | IC50 (TZBD.02, clade C): 0.005 µM | IC50 (UG021.16, clade D): 0.013 µM | IC50 (UG024.2, clade D): 0.566 µM | IC50 (UG037.8, clade A): 1.01 µM | IC50 (WITO.33, clade B): 0.005 µM | IC50 (X1254.c3, clade G): 0.043 µM | IC50 (X1632.S2.B10, clade G): 0.054 µM | IC50 (X2088.c9, clade G): 0.003 µM | IC50 (X2131.C1.B5, clade G): 0.267 µM | IC50 (X2278.C2.B6, clade B): 1.26 µM | IC50 (YU2.DG, clade B): 0.0009 µM | IC50 (ZA012.29, clade C): 0.007 µM | IC50 (ZM53.12, clade C): 0.01 µM | IC50 (ZM55.28a, clade C): 0.006 µM | IC50 (ZM106.9, clade C): 0.017 µM | IC50 (ZM109.4, clade C): 0.001 µM | IC50 (ZM135.10a, clade C): 0.889 µM | IC50 (ZM176.66, clade C): 0.018 µM | IC50 (ZM197.7, clade C): 0.006 µM | IC50 (ZM214.15, clade C): 0.002 µM | IC50 (ZM215.8, clade C): 0.002 µM | IC50 (ZM233.6, clade C): 0.0008 µM | IC50 (ZM249.1, clade C): 0.018 µM | IC50 ([…], clade C): 0.002 µM | IC50 ([…], clade G): 0.12 µM
